What all share (assay type): cell-based
One experiment relates to Prostate Epithelial cell. Description: XTT viability assay, prostate epithelial cells. Particulars: Homo sapiens, Primary normal cells. An excerpt: (§1) Cells and culture conditions. Primary astrocytes (Lonza, Walkersville, Md.; ABM™ Basal Media with AGM™ SingleQuots™ Supplement Pack), fibroblast (ATCC; Fibroblast Basal Medium (ATCC© PCS-201-030™) with Fibroblast Growth Kit-Serum-free (ATCC© PCS-201-040™)), airway epithelial cell (ATCC; Airway Epithelial Cell Basal Medium (ATCC© PCS-300-030™) with Bronchial Epithelial Cell Growth Kit (ATCC© PCS-300-040™)), renal proximal tubule (ATCC; Renal Epithelial Cell Basal Medium (ATCC© PCS-400-030™) with Renal Epithelial Cell Growth Kit (ATCC© PCS-400-040™)), prostate epithelial cell (Lonza; PrEGM™ BulletKit™) and mammary epithelial cell (Lonza; MEBM™ BulletKit™) were kept in a humidified incubator at 37° C. adjusted to 5% CO2. […]
(§2) XTT assay. […] Cell viability was measured using the R&D Systemsm TACS XTT Cell Proliferation/Viability Assay (R&D Systems, Minneapolis, Minn.).

The next experiment relates to Airway Epithelial cell. Description: XTT viability assay, airway epithelial cells. The conditions noted are these: Homo sapiens, Primary normal cells.
From the text: as §1, §2
(Formazan colour is commonly taken as a measure of viable cells.)

The subject of another experiment is Renal Proximal Tubule. Description: XTT viability assay, renal proximal tubule cells. Particulars: Homo sapiens, Primary normal cells.
From the text: as §1, §2

A further experiment relates to RPMI-7951. The experiment can be described thus: XTT viability assay, RPMI-7951. The conditions noted are these: Homo sapiens; Melanoma, RPMI-7951, XTT.
From the text: as §1, §2

A further experiment has as its system DLD-1 WT cells. The experiment can be described thus: DLD-1 WT proliferation under hypoxia or normoxia. The conditions noted are these: Homo sapiens; WT DLD-1 cells, hypoxic conditions (1% oxygen).
In the next experiment the test system is SK-Mel-3. Description: XTT viability assay, SK-Mel-3. Particulars: Homo sapiens, SK-MEL3; Melanoma, SK-Mel-3, XTT.
From the text: as §1, §2

For a further experiment, the system named is MDA-MB-453. Description: XTT viability assay, MDA-MB-453. The conditions noted are these: Homo sapiens; Breast Cancer, MDA-MB-453, XTT.
From the text: as §1, §2

For the next experiment, the system named is Mammary Epithelial cell. Description: XTT viability assay, mammary epithelial cells. Particulars: Homo sapiens, Primary normal cells.
From the text: as §1, §2

The subject of the next experiment is LNCaP. Description: XTT viability assay, LNCaP. The conditions noted are these: Homo sapiens, Prostate Cancer.
From the text: as §1, §2

A further experiment deals with A253. The experiment can be described thus: XTT viability assay, A253. The conditions noted are these: Homo sapiens, Head and Neck Cancer.
From the text: as §1, §2

Another experiment concerns SK-BR-3. The experiment can be described thus: XTT viability assay, SK-BR-3. Particulars: Homo sapiens; Breast Cancer, SK-BR-3, XTT.
From the text: as §1, §2

Another experiment deals with primary human cells. Description: XTT viability assay, panel of primary non-malignant cells (means and ranges). The text has this: (§3) Cells and culture conditions. Primary astrocytes (Lonza, Walkersville, Md.; ABM™ Basal Media with AGM™ SingleQuots™ Supplement Pack), fibroblast (ATCC; Fibroblast Basal Medium (ATCC© PCS-201-030™) with Fibroblast Growth Kit-Serum-free (ATCC© PCS-201-040™)), airway epithelial cell (ATCC; Airway Epithelial Cell Basal Medium (ATCC© PCS-300-030™) with Bronchial Epithelial Cell Growth Kit (ATCC© PCS-300-040™)), renal proximal tubule (ATCC; Renal Epithelial Cell Basal Medium (ATCC© PCS-400-030™) with Renal Epithelial Cell Growth Kit (ATCC© PCS-400-040™)), prostate epithelial cell (Lonza; PrEGM™ BulletKit™) and mammary epithelial cell (Lonza; MEBM™ BulletKit™) were kept in a humidified incubator at 37° C. adjusted to 5% CO2. Prostate (PC3, LNCaP, DU-145), breast (MDA-MB-231, MDA-MB-453, SK-BR-3), head and neck (A253, Detroit 562, SCC-25), melanoma (SK-Mel-3, SK-Mel-1, RPMI-7951), pancreatic (CfPAC-1, BxPC3, SW1990), lung (A549, NCI-H1299, NCI-H1437) and liver (SNU-475, SK-HEP-1, SNU-387) cancer cell lines were obtained from ATCC and cultured in their respective media (prostate cells: RPMI-1640, MDA-MB-231: RPMI-1640, MDA-MB-453: Leibovitz's L-15, SK-BR-3: McCoy's 5a, A253: McCoy's 5a, Detroit 562: EMEM, SCC-25: DMEM, SK-Mel-3: McCoy's 5a, SK-Mel-1: EMEM, RPMI-7951: EMEM), CfPAC-1: IMDM, BxPC3: RPMI-1640, SW1990: Leibovitz's L-15), A549: F-12K, NCI-H1299: RPMI-1640, NCI-H1437: RPMI-1640, SNU-475: RPMI-1640, SK-HEP-1: EMEM, SNU-387: RPMI-1640. All media were supplemented with 10% (vol/vol) filtered fetal bovine serum (FBS, Invitrogen, Carlsbad, Calif.), 1% penicillin/streptomycin (Invitrogen) and maintained in a humidified incubator at 37° C. with 5% CO2 except for MDA-MB-453 and SW1990 grown at 37° C. without CO2 control. Wild type (ATCC) and C342T XPB knock-in cells (named T7115) of Human Embryonic Kidney 293T (HEK293T), HeLa (ATCC) were cultured in DMEM (GIBCO) with 10% (vol/vol) filtered fetal bovine serum (FBS, Invitrogen, Carlsbad, Calif.), 1% penicillin/streptomycin (Invitrogen).
(§4) XTT assay. Five thousand cells/well were plated on flat-bottom, transparent 96-well plate in a full growth media and incubated at appropriate culture conditions. Twenty four hours after seeding, cells were treated with indicated drugs and incubated for 47 hrs. Cell viability was measured using the R&D Systemsm TACS XTT Cell Proliferation/Viability Assay (R&D Systems, Minneapolis, Minn.).

A further experiment relates to A549. The experiment can be described thus: XTT viability assay, A549. The conditions noted are these: Homo sapiens, Lung Cancer.
From the text: as §1, §2

The test system of the next experiment is SNU-387. Description: XTT viability assay, SNU-387. Particulars: Homo sapiens; Liver Cancer, SNU-387, XTT.
From the text: as §1, §2

The test system of another experiment is Fibroblast. Description: XTT viability assay, primary fibroblasts. Particulars: Homo sapiens, Primary normal cells.
From the text: as §1, §2

A further experiment has as its system Cancer cell lines. Description: XTT viability assay, panel of cancer cell lines (means and ranges). Particulars: Homo sapiens.
From the text: as §3, §4

The test system of a further experiment is HUVEC. The experiment can be described thus: XTT viability assay, HUVEC. The conditions noted are these: Homo sapiens, Primary normal cells.
The next experiment has as its system Detroit 562. Description: XTT viability assay, Detroit 562. The conditions noted are these: Homo sapiens; Head and Neck Cancer, Detroit 562, XTT.
From the text: as §1, §2

Setting [1] is: Non-malignant cells, read-out: mean IC50 by cell type.
Setting [2] is: cell viability, panel of normal primary cells, read-out: range of IC50 values for primary cells.
Setting [3] is: Cancer cell lines (n = 21), read-out: mean IC50 by cell type.
The mark [4] stands for this setting: Less sensitive lines (n = 13), IC50 ≥ 1 μM, read-out: mean IC50 by cell type.
Setting [5] is: Sensitive lines (n = 8), IC50 < 1 μM, read-out: mean IC50 by cell type.

Like-named read-outs stand apart in the source and are kept apart here.

For orientation: IC50 means the concentration needed to halve the response being measured. As to `CC(C)[C@]12O[C@H]1[C@@H]1O[C@]13[C@]1(O[C@H]1C[C@H]1C4=C(CC[C@@]13C)C(=O)OC4)[C@@H]2OC(=O)CCCO[C@@H]1OC(CO)[C@@H](O)C(O)C1O` (stereo in doubt) [Compound 1], the IC50 in the experiment with Prostate Epithelial cell is 4.72 ± 3.48 µM; in the experiment on Airway Epithelial cell, 7.13 ± 2.84 µM; with Renal Proximal Tubule, 5.94 ± 2.21 µM; in the experiment with RPMI-7951, 5.95 ± 2.45 µM; in the experiment with DLD-1 WT cells it was 1300 nM; in the experiment on SK-Mel-3, 440 ± 250 nM. Further, the IC50 in the experiment with MDA-MB-453 was determined as 530 ± 280 nM; in the experiment on Mammary Epithelial cell it was 4.31 ± 1.03 µM; in the experiment on LNCaP it was 450 ± 330 nM; in the experiment with A253 it was 540 ± 400 nM; in the experiment with SK-BR-3, 2160 ± 1590 nM; in the experiment on primary human cells (setting [1]), 6.8 ± 1.67 µM. For the same molecule, the IC50 with primary human cells (setting [2]) is 4 to 10.9 µM; in the experiment with A549 it was 2720 ± 1410 nM; in the experiment with SNU-387, 24.4 ± 8.9 µM; in the experiment on Fibroblast, 10.6 ± 1.22 µM; with Cancer cell lines (setting [3]) it was 3.94 ± 3.26 µM; in the experiment on Cancer cell lines (setting [4]), 6.25 ± 3.68 µM. Further, the IC50 in the experiment on Cancer cell lines (setting [5]) is 0.47 ± 0.06 µM; in the experiment with Cancer cell lines (with the exception of SNU-387 and NCI-H1299, read-out: range of IC50 values for cancer cell lines), 0.26 to 6.5 µM; with HUVEC, 3980 ± 1150 nM; in the experiment on Detroit 562 it was 1240 ± 610 nM.

Turning to `CC(C)[C@]12O[C@H]1[C@@H]1O[C@]13[C@]1(O[C@H]1C[C@H]1C4=C(CC[C@@]13C)C(=O)OC4)[C@@H]2OC(=O)CCC(=O)O[C@@H]1OC(CO)[C@@H](O)C(O)C1O` (stereo partly drawn) [Compound 10], the IC50 turned out to be 5.27 ± 2.29 µM in the experiment with Prostate Epithelial cell; 4.12 ± 1.39 µM in the experiment with Airway Epithelial cell; 4.83 ± 1.54 µM in the experiment on Renal Proximal Tubule; 2.67 ± 1.34 µM with RPMI-7951; 420 ± 340 nM with SK-Mel-3; 530 ± 200 nM in the experiment on MDA-MB-453. Besides, the 50% inhibitory concentration (IC50) with Mammary Epithelial cell is 2.56 ± 0.29 µM; in the experiment with LNCaP, 560 ± 90 nM; with A253 it was 710 ± 470 nM; with SK-BR-3, 1300 nM; in the experiment on primary human cells (setting [1]) it was 4.16 ± 0.93 µM; in the experiment with primary human cells (setting [2]), 1.37 to 5.6 µM. The IC50 in the experiment on A549 is 1700 ± 790 nM; with SNU-387 it was 15.5 ± 9.28 µM; in the experiment on Fibroblast it was 5.64 ± 1.28 µM; with Cancer cell lines (setting [3]), 2.42 ± 2 µM; in the experiment on Cancer cell lines (setting [4]) it was 3.7 ± 2.33 µM; with Cancer cell lines (setting [5]) it was 0.49 µM. Also, the IC50 was 1370 ± 730 nM with HUVEC and 1420 ± 830 nM with Detroit 562.
